In this test the target is GCN2 (Homo sapiens (Human), UniProt Q9P2K8). Nature of the test: GCN2 Biochemical Assay (TR-FRET, GFP-eIF2S1 substrate phosphorylation). To be noted: read-out: IC50 (GCN2 Inhibitory Activity). The essentials: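 In-house GCN2 (1.6 nM 2× stock) phosphorylates GFP-eIF2S1 (50 nM 2× stock) with ATP (0.2 mM 2× stock) and tRNA, pH 7.5, 70 min at room temperature; 10-point 3.16-fold compound series. TR-FRET detection with Tb-anti-phospho antibody, 2–3 h, Ex 340/Em 490/520 nm; artifact plate spiked with phospho-substrate.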
GCN2, sequence (Q9P2K8 whole entry): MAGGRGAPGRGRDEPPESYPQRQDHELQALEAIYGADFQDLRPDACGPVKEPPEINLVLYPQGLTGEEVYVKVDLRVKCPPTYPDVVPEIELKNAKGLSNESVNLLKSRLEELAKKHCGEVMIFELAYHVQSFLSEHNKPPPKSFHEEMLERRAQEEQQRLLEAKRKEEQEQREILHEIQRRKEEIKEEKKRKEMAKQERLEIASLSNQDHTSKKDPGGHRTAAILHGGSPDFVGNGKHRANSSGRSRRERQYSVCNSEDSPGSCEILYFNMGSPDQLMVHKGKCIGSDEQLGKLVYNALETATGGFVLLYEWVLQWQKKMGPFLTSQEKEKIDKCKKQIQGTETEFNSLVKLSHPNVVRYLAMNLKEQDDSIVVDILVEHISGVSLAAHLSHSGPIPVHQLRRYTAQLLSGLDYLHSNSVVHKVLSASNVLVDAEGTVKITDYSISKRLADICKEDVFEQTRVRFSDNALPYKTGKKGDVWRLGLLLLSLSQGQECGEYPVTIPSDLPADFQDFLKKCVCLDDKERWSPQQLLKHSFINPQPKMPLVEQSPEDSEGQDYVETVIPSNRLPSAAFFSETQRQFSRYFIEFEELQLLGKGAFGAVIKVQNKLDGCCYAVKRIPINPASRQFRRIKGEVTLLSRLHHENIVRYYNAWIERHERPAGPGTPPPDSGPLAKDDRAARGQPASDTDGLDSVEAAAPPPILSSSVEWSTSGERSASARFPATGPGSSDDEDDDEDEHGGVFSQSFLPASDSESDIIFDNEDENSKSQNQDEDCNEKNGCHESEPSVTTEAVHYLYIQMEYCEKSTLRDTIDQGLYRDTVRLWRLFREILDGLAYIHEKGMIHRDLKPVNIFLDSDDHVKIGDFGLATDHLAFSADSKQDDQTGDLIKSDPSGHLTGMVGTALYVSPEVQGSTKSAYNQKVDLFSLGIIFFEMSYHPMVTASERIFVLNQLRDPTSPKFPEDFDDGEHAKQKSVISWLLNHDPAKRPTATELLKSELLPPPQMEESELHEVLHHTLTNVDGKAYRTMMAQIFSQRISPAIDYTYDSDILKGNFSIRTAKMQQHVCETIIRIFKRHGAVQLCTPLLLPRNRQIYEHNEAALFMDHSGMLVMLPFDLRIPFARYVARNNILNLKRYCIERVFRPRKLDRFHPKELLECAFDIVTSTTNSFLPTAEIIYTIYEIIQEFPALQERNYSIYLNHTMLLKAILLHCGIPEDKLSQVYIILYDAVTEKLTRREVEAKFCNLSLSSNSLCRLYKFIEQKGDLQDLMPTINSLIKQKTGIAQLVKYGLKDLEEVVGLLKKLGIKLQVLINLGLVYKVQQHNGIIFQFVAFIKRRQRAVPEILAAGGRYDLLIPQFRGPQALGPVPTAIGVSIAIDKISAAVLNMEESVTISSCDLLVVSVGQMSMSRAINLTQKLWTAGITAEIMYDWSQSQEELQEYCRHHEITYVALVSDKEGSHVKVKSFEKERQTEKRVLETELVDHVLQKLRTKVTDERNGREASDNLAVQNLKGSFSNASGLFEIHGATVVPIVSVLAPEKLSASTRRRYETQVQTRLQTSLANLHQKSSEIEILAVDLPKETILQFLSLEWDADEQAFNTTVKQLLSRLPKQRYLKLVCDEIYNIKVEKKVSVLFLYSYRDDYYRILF
In general terms: Time-resolved FRET reads energy transfer from a long-lived donor to a nearby acceptor.
As for `Cc1cnc(Nc2cc(C)n(C)n2)nc1-c1c[nH]c2c(NC(=O)CN3CC[C@H](Oc4nc(N)nc(N)n4)C3)cccc12` [Example 138, (S)-2-(3-((4,6-diamino-1,3,5-triazin-2-yl)oxy)pyrrolidin-1-yl)-N-(3-(2-((1,5-dimethyl-1H-pyrazol-3-yl)amino)-5-methylpyrimidin-4-yl)-1H-indol-7-yl)acetamide], the IC50 (usually the midpoint of a concentration-inhibition curve) was less than 10 nM.
The same measure for `Cc1cnc(Nc2cc(C)n(C)n2)nc1-c1c[nH]c2c(N3Cc4c(NC(=O)c5ccncc5)cccc4C3=O)cccc12` [Example 301, N-(2-(3-(2-((1,5-dimethyl-1H-pyrazol-3-yl)amino)-5-methylpyrimidin-4-yl)-1H-indol-7-yl)-1-oxoisoindolin-4-yl)isonicotinamide]: less than 10 nM; for `Cc1cnc(Nc2cc(C)n(C)n2)nc1-c1c[nH]c2c(N3Cc4c(cccc4-c4ccc(C#N)nc4)C3=O)cccc12` [Example 470, 5-(2-(3-(2-((1,5-dimethyl-1H-pyrazol-3-yl)amino)-5-methylpyrimidin-4-yl)-1H-indol-7-yl)-1-oxoisoindolin-4-yl)picolinonitrile]: less than 10 nM.
As for `Cc1cnc(Nc2cc(C)n(C)n2)nc1-c1c[nH]c2c(N3Cc4c(NC(=O)c5cocn5)cccc4C3=O)cccc12` [Example 299, N-(2-(3-(2-((1,5-dimethyl-1H-pyrazol-3-yl)amino)-5-methylpyrimidin-4-yl)-1H-indol-7-yl)-1-oxoisoindolin-4-yl)oxazole-4-carboxamide], the IC50 was less than 10 nM.
For `Cc1cnc(Nc2cc(C)n(C)n2)nc1-c1c[nH]c2c(NC(=O)CN3CC[C@H](C(=O)N4CCSCC4)C3)cccc12` [Example 64, (S)-N-(3-(2-((1,5-dimethyl-1H-pyrazol-3-yl)amino)-5-methylpyrimidin-4-yl)-1H-indol-7-yl)-2-(3-(thiomorpholine-4-carbonyl)pyrrolidin-1-yl)acetamide] the value was 10 to 100 nM.
Turning to `Cc1cnc(Nc2cc(C)n(C)n2)nc1-c1c[nH]c2c(N3Cc4cccc(C5=CCCCC5)c4C3=O)cccc12` [Example 384, 7-(cyclohex-1-en-1-yl)-2-(3-(2-((1,5-dimethyl-1H-pyrazol-3-yl)amino)-5-methylpyrimidin-4-yl)-1H-indol-7-yl)isoindolin-1-one], the half-inhibitory concentration (IC50) lay in the range of 100 to 1000 nM.
For `CC(=O)/C=C/c1cccc2c1CN(c1cccc3c(-c4nc(Nc5cc(C)n(C)n5)ncc4C)c[nH]c13)C2=O` [Example 362, (E)-2-(3-(2-((1,5-dimethyl-1H-pyrazol-3-yl)amino)-5-methylpyrimidin-4-yl)-1H-indol-7-yl)-4-(3-oxobut-1-en-1-yl)isoindolin-1-one] the value was less than 10 nM.
The same measure for `Cc1cnc(Nc2cc(C)n(C)n2)nc1-c1c[nH]c2c(N3Cc4c(Br)cccc4C3=O)cccc12` [Example 266, 4-bromo-2-(3-(2-((1,5-dimethyl-1H-pyrazol-3-yl)amino)-5-methylpyrimidin-4-yl)-1H-indol-7-yl)isoindolin-1-one]: less than 10 nM.
The same measure for `Cc1cnc(Nc2cc(C)n(C)n2)nc1-c1c[nH]c2c(N3Cc4c(cccc4-c4ccccc4N)C3=O)cccc12` [Example 462, 4-(2-aminophenyl)-2-(3-(2-((1,5-dimethyl-1H-pyrazol-3-yl)amino)-5-methylpyrimidin-4-yl)-1H-indol-7-yl)isoindolin-1-one]: 10 to 100 nM; for `Cc1cnc(Nc2cc(C)n(C)n2)nc1-c1c[nH]c2c(N3C(=O)c4cccc(F)c4C3=O)cccc12` [Example 261, 2-(3-(2-((1,5-dimethyl-1H-pyrazol-3-yl)amino)-5-methylpyrimidin-4-yl)-1H-indol-7-yl)-4-fluoroisoindoline-1,3-dione]: less than 10 nM.
Turning to `Cc1cnc(Nc2cc(C)n(C)n2)nc1-c1c[nH]c2c(NC(=O)CN3CC[C@H](Oc4cc(NCc5ccccc5)ncn4)C3)cccc12` [Example 149, (S)-2-(3-((6-(benzylamino)pyrimidin-4-yl)oxy)pyrrolidin-1-yl)-N-(3-(2-((1,5-dimethyl-1H-pyrazol-3-yl)amino)-5-methylpyrimidin-4-yl)-1H-indol-7-yl)acetamide], the IC50 was less than 10 nM.
With `Cc1cc(O[C@H]2CCN(CC(=O)Nc3cccc4c(-c5nc(Nc6cc(C)n(C)n6)ncc5C)c[nH]c34)C2)no1` [Example 112, (S)-N-(3-(2-((1,5-dimethyl-1H-pyrazol-3-yl)amino)-5-methylpyrimidin-4-yl)-1H-indol-7-yl)-2-(3-((5-methylisoxazol-3-yl)oxy)pyrrolidin-1-yl)acetamide], the half-maximal inhibitory concentration (IC50) is 10 to 100 nM.
For `Cc1cnc(Nc2cc(C)n(C)n2)nc1-c1c[nH]c2c(N3C(=O)c4cccnc4C3=O)cccc12` [Example 265, 6-(3-(2-((1,5-dimethyl-1H-pyrazol-3-yl)amino)-5-methylpyrimidin-4-yl)-1H-indol-7-yl)-5H-pyrrolo[3,4-b]pyridine-5,7(6H)-dione] the value was less than 10 nM; for `Cc1cnc(Nc2cc(C)n(C)n2)nc1-c1c[nH]c2c(NC(=O)CN3CC[C@H](Oc4nc(N)ncc4F)C3)cccc12` [Example 226, (S)-2-(3-((2-amino-5-fluoropyrimidin-4-yl)oxy)pyrrolidin-1-yl)-N-(3-(2-((1,5-dimethyl-1H-pyrazol-3-yl)amino)-5-methylpyrimidin-4-yl)-1H-indol-7-yl)acetamide], less than 10 nM; for `Cc1cnc(Nc2cc(C)n(C)n2)nc1-c1c[nH]c2c(N3Cc4c(NC(=O)[C@@H]5CCN(C)C5)cccc4C3=O)cccc12` [Example 333, (R)-N-(2-(3-(2-((1,5-dimethyl-1H-pyrazol-3-yl)amino)-5-methylpyrimidin-4-yl)-1H-indol-7-yl)-1-oxoisoindolin-4-yl)-1-methylpyrrolidine-3-carboxamide], less than 10 nM.
On to `Cc1cc(C)nc(OC2CCN(CC(=O)Nc3cccc4c(-c5nc(Nc6cc(C)n(C)n6)ncc5C)c[nH]c34)CC2)n1` [Example 42, N-(3-(2-((1,5-dimethyl-1H-pyrazol-3-yl)amino)-5-methylpyrimidin-4-yl)-1H-indol-7-yl)-2-(4-((4,6-dimethylpyrimidin-2-yl)oxy)piperidin-1-yl)acetamide], for which the concentration for half-maximal inhibition (IC50) lay within 10 to 100 nM.
The same measure for `Cc1cc(-c2cccc3c2CN(c2cccc4c(-c5nc(Nc6cc(C)n(C)n6)ncc5C)c[nH]c24)C3=O)cnc1F` [Example 407, 2-(3-(2-((1,5-dimethyl-1H-pyrazol-3-yl)amino)-5-methylpyrimidin-4-yl)-1H-indol-7-yl)-4-(6-fluoro-5-methylpyridin-3-yl)isoindolin-1-one]: 10 to 100 nM; for `Cc1cnc(Nc2cc(C)n(C)n2)nc1-c1c[nH]c2c(N3Cc4c(cccc4-c4cnn(CCN5CCOCC5)c4)C3=O)cccc12` [Example 416, 2-(3-(2-((1,5-dimethyl-1H-pyrazol-3-yl)amino)-5-methylpyrimidin-4-yl)-1H-indol-7-yl)-4-(1-(2-morpholinoethyl)-1H-pyrazol-4-yl)isoindolin-1-one]: less than 10 nM; for `Cc1cnc(Nc2cc(C)n(C)n2)nc1-c1c[nH]c2c(NC(=O)CN3CC[C@H](Oc4ccnc(NCCF)n4)C3)cccc12` [Example 202, (S)-N-(3-(2-((1,5-dimethyl-1H-pyrazol-3-yl)amino)-5-methylpyrimidin-4-yl)-1H-indol-7-yl)-2-(3-((2-((2-fluoroethyl)amino)pyrimidin-4-yl)oxy)pyrrolidin-1-yl)acetamide]: less than 10 nM.
The same measure for `Cc1cnc(Nc2cc(C)n(C)n2)nc1-c1c[nH]c2c(NC(=O)CN3CC[C@H](Oc4nccc(N5CCCC5)n4)C3)cccc12` [Example 173, (S)-N-(3-(2-((1,5-dimethyl-1H-pyrazol-3-yl)amino)-5-methylpyrimidin-4-yl)-1H-indol-7-yl)-2-(3-((4-(pyrrolidin-1-yl)pyrimidin-2-yl)oxy)pyrrolidin-1-yl)acetamide]: less than 10 nM; for `Cc1cnc(Nc2cc(C)n(C)n2)nc1-c1c[nH]c2c(N3Cc4c(/C=C/C(=O)NN)cccc4C3=O)cccc12` [Example 366, (E)-3-(2-(3-(2-((1,5-dimethyl-1H-pyrazol-3-yl)amino)-5-methylpyrimidin-4-yl)-1H-indol-7-yl)-1-oxoisoindolin-4-yl)acrylohydrazide]: less than 10 nM.
For `Cc1cnc(Nc2cc(C)n(C)n2)nc1-c1c[nH]c2c(N3Cc4c(cccc4-c4ccc(S(=O)(=O)N5CCCC5)cc4)C3=O)cccc12` [Example 409, 2-(3-(2-((1,5-dimethyl-1H-pyrazol-3-yl)amino)-5-methylpyrimidin-4-yl)-1H-indol-7-yl)-4-(4-(pyrrolidin-1-ylsulfonyl)phenyl)isoindolin-1-one] the value was 10 to 100 nM; for `CCC(C)Nc1nccc(O[C@H]2CCN(CC(=O)Nc3cccc4c(-c5nc(Nc6cc(C)n(C)n6)ncc5C)c[nH]c34)C2)n1` (stereo partly drawn) [Example 212, 2-((3S)-3-((2-(sec-butylamino)pyrimidin-4-yl)oxy)pyrrolidin-1-yl)-N-(3-(2-((1,5-dimethyl-1H-pyrazol-3-yl)amino)-5-methylpyrimidin-4-yl)-1H-indol-7-yl)acetamide], less than 10 nM.
For the compound `Cc1cncc(-c2nccc3c2CN(c2cccc4c(-c5nc(Nc6cc(C)n(C)n6)ncc5C)c[nH]c24)C3=O)c1` [Example 505, 2-(3-(2-((1,5-dimethyl-1H-pyrazol-3-yl)amino)-5-methylpyrimidin-4-yl)-1H-indol-7-yl)-4-(5-methylpyridin-3-yl)-2,3-dihydro-1H-pyrrolo[3,4-c]pyridin-1-one], the IC50 is less than 10 nM.
As to `Cc1cnc(Nc2cc(C)n(C)n2)nc1-c1c[nH]c2c(NC(=O)CN3CC[C@H](Oc4ccc(F)cc4Cl)C3)cccc12` [Example 85], the IC50 is 100 to 1000 nM.
For `Cc1cnc(Nc2cc(C)n(C)n2)nc1-c1c[nH]c2c(N3Cc4cccc(-c5ccncc5)c4C3=O)cccc12` [Example 383, 2-(3-(2-((1,5-dimethyl-1H-pyrazol-3-yl)amino)-5-methylpyrimidin-4-yl)-1H-indol-7-yl)-7-(pyridin-4-yl)isoindolin-1-one] the value was less than 10 nM.

(Values after patent publication US20240025884A1 (Dong-A ST Co., Ltd., priority 2022, published 2024).)
